These results are taken from US11286281B2, “Homodetic cyclic peptides targeting alpha-4-beta-7 integrin” (priority 2017, dated 2022).

The target of the assay is integrin α4β1 (Homo sapiens, UniProt P05556+P13612). Briefly: Integrin α4β1-VCAM human cell adhesion assay (RAMOS cells). Type of assay: cell-based. Details: host or cells: RAMOS human cells. The note with it: adhesion of RAMOS cells to VCAM-1 coated plates. As for the experimental part:
Integrin α4β1-VCAM Human Cell Adhesion Assay
RAMOS human cells (ATCC CRL-1596) were cultured in RPMI 1640 medium (HyClone SH30027.1) supplemented with 10% FBS (Seradigm) and 1% Penicillin-Streptomycin. A 96-well plate (Costar, 3603) was coated with 100 μl/well of recombinant human VCAM-1 Fc Chimera (R&D systems, 862-VC-100) solution at 0.25 μg/ml in coating buffer (50 mM sodium carbonate, pH 9.6). The plate was incubated overnight at 4° C. and washed twice with […] per well wash buffer (0.05% Tween 20 in PBS), blocked with 250 μl per well blocking buffer (1% non-fat dry milk in PBS), for 1 hour at room temperature. During blocking step, RAMOS cells were resuspended at 10 million cells/ml in PBS containing […] and incubated at 37° C. for 30 min in a 50 ml tube. PBS was added to fill the tube, cells were spun down and resuspended in RPMI 1640 medium to 2 million/mi. Compounds were diluted by serial dilution in binding buffer (1.5 mM CaCl2, 0.5 mM MnCl2, 50 mM Tris-HCl, pH 7.5) to a final volume of 50 μl per well at 2× concentration. […] After last wash, 100 μL of PBS was added to wells and the fluorescence was read (Ex495/Em515) using a plate reader (Tecan Infinite 1000). To calculate the dose response, the fluorescence value of control wells not containing cells was subtracted from each test well.

Where “and” joins values, the source holds several entries; their conditions need not be identical. Identical values can stand only once. Numbered stars: 1 amine (or outer) side, 2 acyl side, 3 side chain; on linkers, the order of the positions; unused ones are H or OH. Square brackets hold non-standard residues; d marks the D form. Peptide text beside a SMILES is read from it. X1 = O=C(c1ccc(-c2ccc(N3CCNCC3)cc2)c(CN[*:1])c1)[*:2]

Chain of integrin α4β1 (P13612 34-1032): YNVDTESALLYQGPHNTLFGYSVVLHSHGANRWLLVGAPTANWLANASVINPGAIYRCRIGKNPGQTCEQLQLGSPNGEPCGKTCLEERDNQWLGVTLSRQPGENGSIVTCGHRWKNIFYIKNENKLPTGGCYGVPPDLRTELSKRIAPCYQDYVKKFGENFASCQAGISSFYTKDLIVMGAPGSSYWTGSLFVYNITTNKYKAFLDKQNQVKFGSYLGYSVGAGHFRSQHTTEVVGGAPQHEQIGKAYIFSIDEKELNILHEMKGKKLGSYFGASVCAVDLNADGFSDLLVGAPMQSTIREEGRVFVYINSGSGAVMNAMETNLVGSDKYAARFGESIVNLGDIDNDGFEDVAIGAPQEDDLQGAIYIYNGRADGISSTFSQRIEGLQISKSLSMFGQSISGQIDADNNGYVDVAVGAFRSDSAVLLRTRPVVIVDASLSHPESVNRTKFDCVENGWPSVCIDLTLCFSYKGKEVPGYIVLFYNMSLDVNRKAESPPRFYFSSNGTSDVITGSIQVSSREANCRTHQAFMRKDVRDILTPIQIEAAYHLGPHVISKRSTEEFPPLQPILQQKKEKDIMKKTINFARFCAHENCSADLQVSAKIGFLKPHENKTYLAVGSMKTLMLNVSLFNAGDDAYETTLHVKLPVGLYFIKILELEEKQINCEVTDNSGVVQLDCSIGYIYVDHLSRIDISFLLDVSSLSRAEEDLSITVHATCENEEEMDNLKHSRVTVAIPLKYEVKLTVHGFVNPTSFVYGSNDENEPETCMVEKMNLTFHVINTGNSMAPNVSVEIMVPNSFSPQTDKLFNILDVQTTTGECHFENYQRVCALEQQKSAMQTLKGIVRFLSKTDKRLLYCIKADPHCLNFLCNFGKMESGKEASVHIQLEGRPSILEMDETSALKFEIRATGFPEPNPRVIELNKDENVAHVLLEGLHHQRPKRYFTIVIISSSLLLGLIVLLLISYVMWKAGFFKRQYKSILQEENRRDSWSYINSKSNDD
Chain of integrin α4β1 (P05556 21-798): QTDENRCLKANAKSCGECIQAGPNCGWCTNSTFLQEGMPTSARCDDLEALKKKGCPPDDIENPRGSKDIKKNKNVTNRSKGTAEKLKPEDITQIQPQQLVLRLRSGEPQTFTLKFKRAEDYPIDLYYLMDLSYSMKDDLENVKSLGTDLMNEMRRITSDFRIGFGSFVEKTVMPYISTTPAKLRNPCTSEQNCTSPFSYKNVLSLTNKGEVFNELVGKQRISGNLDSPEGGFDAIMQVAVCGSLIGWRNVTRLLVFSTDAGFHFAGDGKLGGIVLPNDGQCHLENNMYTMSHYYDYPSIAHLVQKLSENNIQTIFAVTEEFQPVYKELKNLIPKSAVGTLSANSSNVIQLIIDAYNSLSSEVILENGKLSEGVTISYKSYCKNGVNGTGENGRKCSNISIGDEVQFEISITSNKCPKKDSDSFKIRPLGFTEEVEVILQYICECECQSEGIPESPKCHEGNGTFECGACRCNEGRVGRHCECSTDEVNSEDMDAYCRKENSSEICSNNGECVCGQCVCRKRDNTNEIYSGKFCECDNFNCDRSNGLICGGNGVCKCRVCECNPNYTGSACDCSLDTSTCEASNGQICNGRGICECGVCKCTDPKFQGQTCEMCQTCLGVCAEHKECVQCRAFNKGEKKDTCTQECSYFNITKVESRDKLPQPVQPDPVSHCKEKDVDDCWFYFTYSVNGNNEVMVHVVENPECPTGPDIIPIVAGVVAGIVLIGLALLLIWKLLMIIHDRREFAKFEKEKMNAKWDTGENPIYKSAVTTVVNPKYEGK

As to `CC(C)C[C@@H]1NC(=O)c2ccc(-c3ccc(N4CCN(Cc5cccc(CN6CCN(c7ccc(-c8ccc9cc8CNC(=O)[C@@H]8CCCN8C(=O)[C@H](C)NC(=O)[C@H]([C@@H](C)O)NC(=O)[C@H](CC(=O)O)NC(=O)[C@H](CC(C)C)NC9=O)cc7)CC6)c5)CC4)cc3)c(c2)CNC(=O)[C@@H]2CCCN2C(=O)[C@H](C)NC(=O)[C@H]([C@@H](C)O)NC(=O)[C@H](CC(=O)O)NC1=O` [Compound 18], the IC50 was determined as 184 nM.

`CC(C)C[C@@H]1NC(=O)c2ccc(-c3ccc(N4CCNCC4)cc3)c(c2)CNC(=O)[C@@H]2CCCN2C(=O)[C@H](C)NC(=O)[C@H]([C@@H](C)O)NC(=O)[C@H](CC(=O)O)NC1=O` [Compound 8] (cyclo(P[X1]LDTA)): the IC50 was ~451 nM and 451 nM.

The IC50 is the point on the concentration scale where inhibition reaches its midpoint. Read a high IC50 as lower potency.
